According to US9512139B2, “Conformationally constrained, fully synthetic macrocyclic compounds” (POLYPHOR AG, priority 2009, dated 2016):
Where two headings read alike, the source gives them in different places.

What was measured:
[1] = biological target: T1, Motilin Receptor (Homo sapiens, UniProt O43193); test: Ca2+ assay (FLIPR) for the GPCR motilin receptor, agonist and antagonist mode; format: cell-based; details: antagonist mode, at 10 μM
T1 construct: host or cells: Ca2+ optimized hematopoietic cell lines (rat)
Description: Ca^2+ Assays for the GPCRs Motilin Receptor, Prostaglandin F (FP) Receptor, 5-hydroxytryptamine 2B (5-HT2B) Receptor, and Purinoreceptor P2Y1
Assays were performed using on a FLIPR^TETRA fluorometric imaging plate reader (Molecular Devices) with ScreenWorks Version 2 (Molecular Devices) as device operating and data analysis software.
Dose dependent agonist and antagonist activities were determined. Percentage activation and percentage inhibition values were determined.
Percentage activation was determined upon initial addition of the sample compounds followed by 10 minutes incubation at 25° C. Following compound incubation, reference agonists were added at EC80 to determine percentage inhibition.
Reference agonists were purchased from reputable commercial vendors and prepared according to each ligand's specifications. All handling of ligands were done to ensure proper control throughout the experiments.
Example compounds were weighed on a Microbalance (Mettler MX5) and dissolved in 100% DMSO to a final concentration of 2.5 mM and subsequently diluted into the assay buffer.
The Assay buffer was a supplemented HBSS (Hank's Balanced Salt Solution). HBSS was supplemented with 20 mM HEPES (4-(2-hydroxyethyl)-piperazin-1-ethansulfonic acid) and 2.5 mM Probenecid (Sigma P8761).
GPCR assays were performed using Ca^2+ optimized hematopoietic cell lines (rat) with cultures never exceeding 90% confluency. […] After seeding, the assay plates were incubated for forty-five (45) minutes at room temperature. After room temperature incubation, the assay plates were incubated at 37° C. 5% CO2 for 24 hours prior to assaying.
All GPCR assays were performed using Fluo-8 Ca^2+ dye. Ca^2+ dye was prepared at 1× dye concentration in GPCR assay buffer. After 24 hours of incubation, cells were washed with GPCR assay buffer, and then Ca^2+-dye (100 μL/well) was added.
The plates were incubated for 90 minutes at 30° C. 5% CO2 prior to FLIPR assay.
Compound plates were prepared to add 50 μL/well during the agonist assay mode. During the FLIPR assay, 50 μL/well from the compound plate was diluted 3-fold into the existing 100 μL/well from the dye loading step. Therefore all compounds were prepared as 3× the final concentration desired in the assay.
After completion of the first single addition assay run, assay plate was removed from the FLIPR Tetra and placed at 25° C. for seven (7) minutes before antagonist assay.
Using the EC80 values determined during the agonist assay, all pre-incubated sample compound and reference antagonist (if applicable) wells were stimulated at the EC80 of the reference agonist. As reference ligands for the first three assays their obvious natural ligands motilin, prostaglandin F2α, and serotonin (5-HT, 5-Hydroxytryptamine) were used; and for the P2Y1 assay 2MeSATP (2-methyl-thio-adeno-sine 5′-triphosphate, i.e. (2R,3S,4R)-5-(6-amino-2-methylsulfanyl-purin-9-yl)-3,4-dihydroxy-tetrahydrofuran-2-yl]methyl (hydroxy-phosphonooxy-phosphoryl)hydrogen phosphate) was applied.
After the addition of the reference agonist fluorescence was monitored for 180 sec using FLIPR Tetra.
Data Analysis and Results:
From the FLIPR data, with negative control correction enabled, the maximum statistic for each well was exported and percentage activation relative to Emax control was calculated.

[2] = Metabolic stability assay, CD-1 mouse microsomes; format: in vitro ADME; details: both, CD-1, mouse, microsomes, 10 µM; for Metabolic Stability 60 min mouse [% remain.]: 1 h
[3] = Pharmacokinetic study after single i.v. and p.o. administration in male SD rats; format: in vivo; details: rat; for Cmax / Tmax / C0 / half-life / bioavailability: male, SD, plasma; for C0: extrapolated to tzero; for half-life: read-out: T1/2 (terminal) (converted)
Description: 5. Pharmacokinetic Study (PK) Analysis
Pharmacokinetic analyses after single intravenous (i.v.) and two different peroral (p.o.) administrations were performed for the test compounds. 240 grams (±10 gram) male SD rats were catheterized and used in the study. The vehicle, Solutol HS-15/0.9% saline (5:95), was added to give a final concentration of 0.33 mg/ml of the compounds for i.v. application, and 0.5 or 2.0 mg/ml for p.o. applications. The volumes used for applications were 3 ml/kg i.v. and 10 ml/kg p.o. resulting in a final dose of 1 mg/kg for the intravenous dose and 5 or 20 mg/kg for the peroral doses.
Blood samples were withdrawn via the catheter at 1) predose, 5, 15, 30, 60, 120, 240, and 480 minutes for the i.v. application and 2) predose, 15, 30, 60, 120, 240, 480 and 720 minutes for the p.o. applications. Plasma was prepared by centrifugation of heparinized whole blood. Plasma samples (˜120 μl each time point, Li-Heparin, 20 IE/ml) were stored at −80° C. until HPLC-MSMS analysis.
Preparation of the Plasma Calibration Samples:
“Blank” rat plasma from untreated animals was used. Aliquots of plasma of 50 μL each were spiked with Internal Standard (ISTD) and with known amounts test compounds in order to obtain 11 plasma calibration samples in the range 0.25-4000 ng/mL.
Preparation of Plasma Samples:
To 50 μL of sample from treated animals 20 μL of internal standard were added. After mixing with 200 μL of acetonitrile, 2% HCOOH were added and each sample was vortexed for several seconds. Precipitated material was removed by centrifugation for 10 min (13200 rpm), the supernatant removed and dried under a constant flow of N2 (Porvair, MiniVap). To reconstitute the dried samples, 200 μL of [DMSO/acetonitrile/H2O, 4/4/2 (v/v/v)+2% HCOOH] were added and the sample was shaken for at least 5 minutes.
LC-MSMS Analysis of Samples:
Reconstituted samples were analysed by HPLC/MSMS on a reverse phase analytical column (BEH C18, 100×2.1 mm, 1.7 μm, Waters). Mobile phase A: H2O/acetonitrile (95:5, v:v) 0.1% formic acid, mobile phase B: Acetonitrile/H2O (95:5, v:v) 0.1% formic acid. Compounds were eluted from the column by using a gradient from 1% B to 60% B in 2.5 min.).
Pharmacokinetic Evaluation:
PK analysis was performed on mean values (generally n=3) using WinNonLin software (Version 5.3, Pharsight Corporation). The area under the curve AUC was calculated by the linear trapezoidal rule (linear interpolation, uniform weighting). AUC(t-∞) was estimated as Ct/b (b: elimination rate constant). […] the sum of AUC(0-t) and AUC(t-∞). Elimination half-life was calculated by the linear regression on at least three data points during the elimination phase. The time intervals selected for the half-life determinations were evaluated by the correlation coefficient (r^2), which should be at least above 0.85 and ideally above 0.96.
In case of i.v. administration the initial concentration at tzero was determined by extrapolation of the curve through the first two time points. Finally bioavailability after p.o. administration was calculated from the dose normalized AUC(0-∞) ration after p.o. versus i.v. administration.

[4] = in vitro; format: in vitro ADME, human; details: human, plasma, 10 µM; for Plasma Stability 240 min hum [% remain.]: 4 h
[5] = Metabolic stability assay, rat microsomes (values in parentheses); format: in vitro ADME; details: value in parentheses
[6] = Metabolic stability assay, human microsomes; format: in vitro ADME; details: both, human, microsomes, 10 µM; for Metabolic Stability 60 min hum [% remain.]: 1 h
[7] = in vitro; format: in vitro ADME, mouse; details: both, CD-1, mouse, plasma, 10 µM; for Plasma Stability 240 min mouse [% remain.]: 4 h
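Wherever Plasma Stability 240 min mouse [% remain.] is given: sodium citrate stabilized mouse plasma, parent compound quantified by HPLC/MS/MS relative to its peak area at time zero, run in triplicate.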
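Wherever Plasma Stability T½ [min] mouse is given: sodium citrate stabilized mouse plasma, parent compound quantified by HPLC/MS/MS relative to its peak area at time zero, run in triplicate.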

T1 sequence (O43193 whole entry, species assumed): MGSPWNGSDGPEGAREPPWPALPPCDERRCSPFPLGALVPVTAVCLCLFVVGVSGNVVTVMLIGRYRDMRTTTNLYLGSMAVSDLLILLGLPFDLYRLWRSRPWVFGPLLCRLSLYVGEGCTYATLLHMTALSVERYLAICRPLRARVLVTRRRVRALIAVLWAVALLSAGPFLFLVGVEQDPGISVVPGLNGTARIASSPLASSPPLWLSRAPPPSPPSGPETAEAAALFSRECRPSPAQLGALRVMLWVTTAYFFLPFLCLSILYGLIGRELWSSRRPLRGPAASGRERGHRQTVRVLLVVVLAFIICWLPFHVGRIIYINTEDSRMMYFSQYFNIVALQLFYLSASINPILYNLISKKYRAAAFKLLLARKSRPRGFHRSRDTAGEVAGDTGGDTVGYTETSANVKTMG

Metabolic Stability T½ [min] mouse [2]	Metabolic Stability 60 min mouse [% remain.] [2]	Cmax ([3]; iv, 1 mg/kg)	Tmax ([3]; iv, 1 mg/kg)	C0 ([3]; iv, 1 mg/kg)	half-life ([3]; iv, 1 mg/kg)	Cmax ([3]; po, 5 mg/kg)	Tmax ([3]; po, 5 mg/kg)	bioavailability ([3]; po, 5 mg/kg)	half-life ([3]; po, 5 mg/kg)	Cmax ([3]; po, 20 mg/kg)	Tmax ([3]; po, 20 mg/kg)	bioavailability ([3]; po, 20 mg/kg)	half-life ([3]; po, 20 mg/kg)	AUC(t-∞) dose normalized ([3]; iv, 1 mg/kg)	Cmax dose normalized ([3]; iv, 1 mg/kg)	V (terminal) ([3]; iv, 1 mg/kg)	AUC(t-∞) dose normalized ([3]; po, 5 mg/kg)	Cmax dose normalized ([3]; po, 5 mg/kg)	AUC(t-∞) dose normalized ([3]; po, 20 mg/kg)	Structure (SMILES)	also measured
																				COc1cccc(CC(=O)N[C@H]2C[C@H]3COc4ccc(F)cc4C(=O)N(C)[C@H](C(=O)NCCN(C)C)CCC(=O)N(C)CC(=O)N3C2)c1 [Ex. 496, (2S,11S,19aS)-N-[2-(dimethylamino)ethyl]-15-fluoro-2-{[2-{3-methoxyphenyl)acetyl]amino}-7,12-dimethyl-5,8,13-trioxo-2,3,6,7,8,9,10,11,12,13,19,19a-dodecahydro-1H,5H-pyrrolo[2,1-c] [1,4,7,12]benzoxatriazacyclopentadecine-11-carboxamide]	inhibition at 10 µM [1]: 31%
> 60 min	74 % remain.	644 ng/mL	0.08 h	932 ng/mL	1.7 h	340 ng/mL	0.25 h	29%	2.18 h	1520 ng/mL	0.25 h	27.2%	2.3 h	321.32 kg·ng·h/mL/mg	643.67 kg·ng/mL/mg	7.61859 L/kg	93.34 kg·ng·h/mL/mg	68.07 kg·ng/mL/mg	87.49 kg·ng·h/mL/mg	CN1CCC[C@H](NC(=O)CC(C)(C)C)C(=O)N2C[C@@H](O)C[C@H]2COc2cccc(c2)C1=O [Ex. 571, N-[(4S,6S,10S)-6-hydroxy-14-methyl-9,15-dioxo-2-oxa-8,14-diazatricyclo[14.3.1.0^4,8]icosa-1(20),16,18-trien-10-yl]-3,3-dimethylbutanamide]	Cmax dose normalized ([3]; po, 20 mg/kg): 75.83 kg·ng/mL/mg; Plasma Stability T½ [min] hum [4]: > 240 min; Plasma Stability 240 min hum [% remain.] [4]: 86 % remain.; Metabolic Stability 60 min (rat) [% remain.] [5]: 88 % remain.; Metabolic Stability T½ [min] (rat) [5]: 60 (60) min; Metabolic Stability T½ [min] hum [6]: > 60 min; Metabolic Stability 60 min hum [% remain.] [6]: 90 % remain.; Plasma Stability T½ [min] mouse [7]: > 240 min; Plasma Stability 240 min mouse [% remain.] [7]: 89 % remain.
> 60 min	60 % remain.	195 ng/mL	0.08 h	285 ng/mL	1.67 h	64.3 ng/mL	0.25 h	17.8%	1.92 h	380 ng/mL	0.25 h	21.6%	2.07 h	167.93 kg·ng·h/mL/mg	194.67 kg·ng/mL/mg	14.32056 L/kg	29.83 kg·ng·h/mL/mg	12.87 kg·ng/mL/mg	36.22 kg·ng·h/mL/mg	CN1CCC[C@H](N)C(=O)N2C[C@@H](OCc3ccccc3)C[C@H]2COc2cccc(c2)C1=O [Ex. 568, (4S,6S,10S)-10-amino-6-(benzyloxy)-14-methyl-2-oxa-8,14-diazatricyclo[14.3.1.0^4,8]icosa-1(20),16,18-triene-9,15-dione]	Cmax dose normalized ([3]; po, 20 mg/kg): 18.98 kg·ng/mL/mg; Plasma Stability T½ [min] hum [4]: > 240 min; Plasma Stability 240 min hum [% remain.] [4]: 97 % remain.; Metabolic Stability 60 min (rat) [% remain.] [5]: 57 % remain.; Metabolic Stability T½ [min] (rat) [5]: 60 (60) min; Metabolic Stability T½ [min] hum [6]: > 60 min; Metabolic Stability 60 min hum [% remain.] [6]: 53 % remain.; Plasma Stability T½ [min] mouse [7]: > 240 min; Plasma Stability 240 min mouse [% remain.] [7]: 89 % remain.
